Results: article PMC10544575, “Inhibitory mechanism of vortioxetine on CYP450 enzymes in human and rat liver microsomes” (Frontiers in Pharmacology, 2023)
Where two headings read alike, the source gives them in different places.

Assays:
CYP2B = test: Reversible inhibition kinetics (Lineweaver-Burk), CYP2B in RLMs; type: in vitro ADME, rat
Protocol: (§1) The components of the incubation system were as follows: 0.20 mg/mL HLMs or 0.20 mg/mL RLMs, 0.1 M Tris-HCl, vortioxetine, and the probe substrates of each enzyme. In the study of Km’s (Michaelis–Menten constant) experiment, midazolam (1, 2, 5, 10, 20, 50 and 100 μM in HLMs and RLMs) corresponded to CYP3A4/3A; bupropion (10, 20, 50, 100, 200, 500, 1,000 and 2000 μM in HLMs; 1, 2, 5, 10, 20, 50, 100 and 200 μM in RLMs) corresponded to CYP2B6/2B; amodiaquine (5, 10, 20, 50, 100 and 200 μM in HLMs; 10, 20, 50, 100, 200, 500 μM in RLMs) corresponded to CYP2C8/CYP2C-1; losartan (1, 2, 5, 10, 20, 50, 100, 200 μM in HLMs; 10, 20, 50, 100, 200, 500 and 1,000 μM in RLMs) corresponded to CYP2C9/CYP2C-2; mephenytoin (20, 50, 100, 200, 500 and 1,000 μM in HLMs; 5, 10, 20, 50, 100, 200, 500 and 1,000 μM in RLMs) corresponded to CYP2C19/CYP2C-3; and dextromethorphan (1, 2, 5, 10, 20, 50 and 100 μM in HLMs and RLMs) corresponded to CYP2D6/CYP2D. […]
(§2) All experiments results were detected by UPLC-MS/MS, which equipped with a Waters Acquity UPLC system (Milford, MA, United States) and a Waters Xevo TQ-S triple quadrupole tandem mass spectrometer with an electrospray ionization source (Milford, MA, United States). […]
(§3) IC50 values and enzyme kinetic parameters were calculated by Graphpad Prism 6.0 (GraphPad software Inc., CA, United States). […] Data for each experiment were expressed as mean ± SD (n = 3).

CYP2B6 = molecular target: T1, CYP2B6 (Homo sapiens, UniProt P20813); test: IC50 of vortioxetine on CYP2B6 (bupropion) in HLMs; type: in vitro ADME; set-up: 0.20 mg/mL HLMs; from tissue; host or cells: human liver microsomes
T1 sequence (P20813 1-491): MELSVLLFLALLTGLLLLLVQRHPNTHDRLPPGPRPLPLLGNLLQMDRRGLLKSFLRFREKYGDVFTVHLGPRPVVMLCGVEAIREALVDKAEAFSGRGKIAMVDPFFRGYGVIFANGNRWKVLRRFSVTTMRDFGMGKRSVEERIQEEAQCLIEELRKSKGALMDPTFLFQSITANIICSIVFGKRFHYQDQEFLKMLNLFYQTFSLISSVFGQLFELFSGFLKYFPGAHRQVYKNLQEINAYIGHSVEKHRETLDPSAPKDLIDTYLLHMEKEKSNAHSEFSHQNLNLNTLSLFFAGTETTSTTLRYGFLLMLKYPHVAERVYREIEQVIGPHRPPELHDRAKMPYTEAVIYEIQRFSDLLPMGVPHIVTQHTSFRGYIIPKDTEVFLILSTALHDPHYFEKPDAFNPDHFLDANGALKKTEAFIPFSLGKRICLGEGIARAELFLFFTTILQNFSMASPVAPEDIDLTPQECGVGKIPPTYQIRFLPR
Protocol: as §1, §2, §3

- Inhibition type (CYP2B; bupropion, Lineweaver-Burk plot): competitive inhibition
- Ki at 30 min (CYP2B; rat, rat liver microsomes, probe bupropion): 2.87 µM
- IC50 (CYP2B6; HLMs 0.20 mg/mL, bupropion at Km, 37°C, 30 min, read-out: IC50): 8.94 µM
- IC50 (CYP2B6; inhibitory effect (strength judged by IC50), HLMs): 1 to 10 µM
Compound: Cc1ccc(Sc2ccccc2N2CCNCC2)c(C)c1 [vortioxetine]
